Results as given in ChEMBL document CHEMBL1147793, “Synthesis and biological investigations of dopaminergic partial agonists preferentially recognizing the D4 receptor subtype” (Bioorg Med Chem Lett, 2006).

Each compound was assayed against T1, D(3) dopamine receptor (Homo sapiens, UniProt P35462) (assay: Displacement of [3H]spiperone from human cloned dopamine D3 receptor expressed in CHO cells). Conditions: not given.
Type: cell-based

T1 sequence (P35462 whole entry): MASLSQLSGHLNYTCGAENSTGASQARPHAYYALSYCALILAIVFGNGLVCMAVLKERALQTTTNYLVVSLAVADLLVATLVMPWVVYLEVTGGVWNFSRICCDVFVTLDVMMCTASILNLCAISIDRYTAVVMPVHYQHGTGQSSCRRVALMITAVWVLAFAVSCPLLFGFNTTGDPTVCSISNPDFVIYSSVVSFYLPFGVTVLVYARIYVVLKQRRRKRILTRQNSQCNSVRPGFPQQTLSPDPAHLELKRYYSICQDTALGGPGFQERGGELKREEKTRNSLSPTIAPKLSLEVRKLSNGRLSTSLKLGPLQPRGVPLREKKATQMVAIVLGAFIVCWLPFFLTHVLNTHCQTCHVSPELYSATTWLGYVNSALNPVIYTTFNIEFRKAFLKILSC

In order of rising Ki:
1. C1=C(c2ccccc2)CCN(Cc2cnn(-c3ccccc3)c2)C1  33 nM
2. COc1ccccc1N1CCN(Cc2cnn(-c3ccccc3)c2)CC1  35 nM
3. Fc1ccccc1N1CCN(Cc2cnn(-c3ccccc3)c2)CC1  67 nM
4. COc1ccccc1N1CCN(Cc2cnn(-c3ccccn3)c2)CC1  72 nM
5. C1=C(c2ccccc2)CCN(Cc2cn(-c3ccccc3)nn2)C1  94 nM
6. c1ccc(N2CCN(Cc3cnn(-c4ccccc4)c3)CC2)cc1  140 nM
7. c1ccc(N2CCN(Cc3cnn(-c4ccccn4)c3)CC2)cc1  160 nM
8. Cc1c(CN2CCN(c3ccccc3)CC2)cnn1-c1ccccc1  320 nM
9. COc1ccccc1N1CCN(Cc2cn(-c3ccccc3)nn2)CC1  340 nM
10. Cc1nn(-c2ccccc2)cc1CN1CCN(c2ccccc2)CC1  360 nM
11. c1ccc(-c2c[nH]c(CN3CCN(c4ccccc4)CC3)c2)cc1  514 nM
12. Fc1ccc(N2CCN(Cc3cnn(-c4ccccc4)c3)CC2)cc1  540 nM
13. c1ccc(N2CCN(Cc3cn(-c4ccccc4)nn3)CC2)cc1  1200 nM
14. Clc1ccc(N2CCN(Cc3cnn(-c4ccccc4)c3)CC2)cc1  1900 nM
15. c1ccc(N2CCN(Cc3ccc(-n4cccn4)cc3)CC2)cc1  2100 nM
16. c1ccc(-n2cc(CN3CCN(c4ncccn4)CC3)cn2)cc1  2900 nM

These compounds were tested against T2, D(4) dopamine receptor (Homo sapiens, UniProt P21917) (assay: Displacement of [3H]spiperone from human cloned dopamine D4 receptor expressed in CHO cells). Conditions: not given.
T2 sequence (P21917 whole entry): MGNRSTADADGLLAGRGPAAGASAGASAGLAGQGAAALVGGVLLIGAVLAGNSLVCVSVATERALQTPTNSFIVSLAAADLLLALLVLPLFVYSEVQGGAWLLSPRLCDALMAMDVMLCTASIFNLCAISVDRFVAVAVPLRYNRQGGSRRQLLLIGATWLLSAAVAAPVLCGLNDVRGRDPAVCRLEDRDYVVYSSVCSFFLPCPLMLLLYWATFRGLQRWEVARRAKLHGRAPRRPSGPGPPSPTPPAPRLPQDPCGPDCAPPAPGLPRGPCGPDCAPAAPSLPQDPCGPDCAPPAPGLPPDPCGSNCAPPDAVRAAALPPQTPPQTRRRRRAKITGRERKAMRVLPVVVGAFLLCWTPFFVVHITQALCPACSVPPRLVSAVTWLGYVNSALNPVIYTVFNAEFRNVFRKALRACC
Type: cell-based

In order of rising Ki:
1. COc1ccccc1N1CCN(Cc2cnn(-c3ccccc3)c2)CC1  0.28 nM
2. COc1ccccc1N1CCN(Cc2cnn(-c3ccccn3)c2)CC1  0.44 nM
3. C1=C(c2ccccc2)CCN(Cc2cnn(-c3ccccc3)c2)C1  0.59 nM
4. Fc1ccccc1N1CCN(Cc2cnn(-c3ccccc3)c2)CC1  0.7 nM
5. Cc1nn(-c2ccccc2)cc1CN1CCN(c2ccccc2)CC1  1 nM
6. c1ccc(N2CCN(Cc3cnn(-c4ccccc4)c3)CC2)cc1  1 nM
7. c1ccc(N2CCN(Cc3cnn(-c4ccccn4)c3)CC2)cc1  2.6 nM
8. COc1ccccc1N1CCN(Cc2cn(-c3ccccc3)nn2)CC1  2.7 nM
9. Clc1ccc(N2CCN(Cc3cnn(-c4ccccc4)c3)CC2)cc1  2.9 nM
10. Fc1ccc(N2CCN(Cc3cnn(-c4ccccc4)c3)CC2)cc1  2.9 nM
11. C1=C(c2ccccc2)CCN(Cc2cn(-c3ccccc3)nn2)C1  3.2 nM
12. Cc1c(CN2CCN(c3ccccc3)CC2)cnn1-c1ccccc1  5.3 nM
13. c1ccc(N2CCN(Cc3cn(-c4ccccc4)nn3)CC2)cc1  9.9 nM
14. c1ccc(N2CCN(Cc3ccc(-n4cccn4)cc3)CC2)cc1  20 nM
15. c1ccc(-n2cc(CN3CCN(c4ncccn4)CC3)cn2)cc1  310 nM

Each compound was assayed against D(1A) dopamine receptor (Sus scrofa, UniProt P50130) (assay: Displacement of [3H]SCH-23390 from dopamine D1 receptor in porcine striatal membrane). Conditions: not given.
Type: cell membranes, Striatum

Sequence of D(1A) dopamine receptor (P50130 whole entry): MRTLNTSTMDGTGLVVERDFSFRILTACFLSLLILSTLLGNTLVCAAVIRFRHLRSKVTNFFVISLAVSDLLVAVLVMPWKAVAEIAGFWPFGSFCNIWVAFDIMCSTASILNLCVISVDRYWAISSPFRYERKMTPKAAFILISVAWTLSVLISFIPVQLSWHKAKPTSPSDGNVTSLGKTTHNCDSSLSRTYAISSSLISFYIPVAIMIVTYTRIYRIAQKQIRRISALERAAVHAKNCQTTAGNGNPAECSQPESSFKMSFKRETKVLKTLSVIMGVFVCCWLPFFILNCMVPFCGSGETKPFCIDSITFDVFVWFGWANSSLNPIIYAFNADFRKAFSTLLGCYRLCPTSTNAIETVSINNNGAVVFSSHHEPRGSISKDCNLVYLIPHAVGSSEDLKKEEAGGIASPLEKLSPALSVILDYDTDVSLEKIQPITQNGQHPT

In order of falling Ki:
1. COc1ccccc1N1CCN(Cc2cn(-c3ccccc3)nn2)CC1  27000 nM
2. c1ccc(N2CCN(Cc3cn(-c4ccccc4)nn3)CC2)cc1  21000 nM
3. C1=C(c2ccccc2)CCN(Cc2cn(-c3ccccc3)nn2)C1  10000 nM
4. c1ccc(N2CCN(Cc3ccc(-n4cccn4)cc3)CC2)cc1  7600 nM
5. Clc1ccc(N2CCN(Cc3cnn(-c4ccccc4)c3)CC2)cc1  7500 nM
6. c1ccc(-n2cc(CN3CCN(c4ncccn4)CC3)cn2)cc1  7100 nM
7. Cc1nn(-c2ccccc2)cc1CN1CCN(c2ccccc2)CC1  3900 nM
8. C1=C(c2ccccc2)CCN(Cc2cnn(-c3ccccc3)c2)C1  3000 nM
9. c1ccc(-c2c[nH]c(CN3CCN(c4ccccc4)CC3)c2)cc1  2100 nM
10. COc1ccccc1N1CCN(Cc2cnn(-c3ccccn3)c2)CC1  1900 nM
11. Fc1ccc(N2CCN(Cc3cnn(-c4ccccc4)c3)CC2)cc1  1900 nM
12. c1ccc(N2CCN(Cc3cnn(-c4ccccn4)c3)CC2)cc1  1600 nM
13. c1ccc(N2CCN(Cc3cnn(-c4ccccc4)c3)CC2)cc1  1600 nM
14. COc1ccccc1N1CCN(Cc2cnn(-c3ccccc3)c2)CC1  1000 nM
15. Fc1ccccc1N1CCN(Cc2cnn(-c3ccccc3)c2)CC1  680 nM
16. Cc1c(CN2CCN(c3ccccc3)CC2)cnn1-c1ccccc1  560 nM

What follows are compounds tested against T3, D(2) dopamine receptor (Homo sapiens, UniProt P14416) (assay: Intrinsic activity against dopamine D2(long) receptor expressed in CHO cells relative to quinpirole by GTPgammaS assay). Conditions: not given.
Type: functional, cell-based

T3 sequence (P14416 whole entry): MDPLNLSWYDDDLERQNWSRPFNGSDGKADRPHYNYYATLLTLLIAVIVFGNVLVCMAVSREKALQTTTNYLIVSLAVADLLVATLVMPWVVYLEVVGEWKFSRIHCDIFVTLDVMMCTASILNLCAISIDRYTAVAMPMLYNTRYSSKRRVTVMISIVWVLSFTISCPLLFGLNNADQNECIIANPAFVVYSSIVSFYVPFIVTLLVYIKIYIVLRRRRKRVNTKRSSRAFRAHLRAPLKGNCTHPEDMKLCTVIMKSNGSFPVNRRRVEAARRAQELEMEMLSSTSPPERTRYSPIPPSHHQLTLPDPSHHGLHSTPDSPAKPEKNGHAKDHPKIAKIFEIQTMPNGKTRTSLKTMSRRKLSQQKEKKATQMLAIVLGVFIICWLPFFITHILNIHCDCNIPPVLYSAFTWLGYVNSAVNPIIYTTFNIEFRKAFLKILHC

For C1=C(c2ccccc2)CCN(Cc2cnn(-c3ccccc3)c2)C1, the Efficacy was 45%.

Each compound was assayed against T3, D(2) dopamine receptor (assay: Intrinsic activity against dopamine D2(short) receptor assessed as [3H]thymidine uptake in CHO cells relative to quinpirole by mitogenesis assay). Conditions: not given.
Type: functional, cell-based

In order of falling Efficacy:
1. COc1ccccc1N1CCN(Cc2cnn(-c3ccccc3)c2)CC1  66%
2. C1=C(c2ccccc2)CCN(Cc2cnn(-c3ccccc3)c2)C1  30%

Each compound was assayed against T3, D(2) dopamine receptor (assay: Intrinsic activity against dopamine D2(short) receptor assessed as [3H]thymidine uptake in CHO cells by mitogenesis assay). Conditions: not given.
Type: functional, cell-based

In order of rising EC50:
1. COc1ccccc1N1CCN(Cc2cnn(-c3ccccc3)c2)CC1  0.22 nM
2. C1=C(c2ccccc2)CCN(Cc2cnn(-c3ccccc3)c2)C1  1.7 nM

The compounds below were run against T3, D(2) dopamine receptor (assay: Intrinsic activity against dopamine D2(short) receptor expressed in CHO cells relative to quinpirole by GTPgammaS assay). Conditions: not given.
Type: functional, cell-based

With C1=C(c2ccccc2)CCN(Cc2cnn(-c3ccccc3)c2)C1 the Efficacy was 17%.

Each compound was assayed against T3, D(2) dopamine receptor (assay: Intrinsic activity against dopamine D2(short) receptor expressed in CHO cells by GTPgammaS assay). Conditions: not given.
Type: functional, cell-based

C1=C(c2ccccc2)CCN(Cc2cnn(-c3ccccc3)c2)C1 showed an EC50 of 32 nM.

The compounds below were run against T1, D(3) dopamine receptor (assay: Intrinsic activity against dopamine D3 receptor assessed as [3H]thymidine uptake in CHO cells by mitogenesis assay). Conditions: not given.

In order of falling EC50:
1. C1=C(c2ccccc2)CCN(Cc2cnn(-c3ccccc3)c2)C1  3.3 nM
2. COc1ccccc1N1CCN(Cc2cnn(-c3ccccc3)c2)CC1  0.21 nM

What follows are compounds tested against T2, D(4) dopamine receptor (assay: Intrinsic activity against dopamine D4 receptor assessed as [3H]thymidine uptake in CHO cells by mitogenesis assay). Conditions: not given.
Type: functional, cell-based

In order of falling EC50:
1. C1=C(c2ccccc2)CCN(Cc2cnn(-c3ccccc3)c2)C1  5.6 nM
2. COc1ccccc1N1CCN(Cc2cnn(-c3ccccc3)c2)CC1  0.6 nM

What follows are compounds tested against T2, D(4) dopamine receptor (assay: Intrinsic activity against dopamine D4 receptor expressed in CHO cells by GTPgammaS assay). Conditions: not given.
Type: functional, cell-based

C1=C(c2ccccc2)CCN(Cc2cnn(-c3ccccc3)c2)C1 gave an EC50 of 9.5 nM.

These compounds were tested against 5-hydroxytryptamine receptor 2A (Sus scrofa, UniProt P50129) (assay: Displacement of […] from 5HT2 receptor in porcine striatal membrane). Conditions: not given.
Type: cell membranes, Striatum

Sequence of 5-hydroxytryptamine receptor 2A (P50129 whole entry): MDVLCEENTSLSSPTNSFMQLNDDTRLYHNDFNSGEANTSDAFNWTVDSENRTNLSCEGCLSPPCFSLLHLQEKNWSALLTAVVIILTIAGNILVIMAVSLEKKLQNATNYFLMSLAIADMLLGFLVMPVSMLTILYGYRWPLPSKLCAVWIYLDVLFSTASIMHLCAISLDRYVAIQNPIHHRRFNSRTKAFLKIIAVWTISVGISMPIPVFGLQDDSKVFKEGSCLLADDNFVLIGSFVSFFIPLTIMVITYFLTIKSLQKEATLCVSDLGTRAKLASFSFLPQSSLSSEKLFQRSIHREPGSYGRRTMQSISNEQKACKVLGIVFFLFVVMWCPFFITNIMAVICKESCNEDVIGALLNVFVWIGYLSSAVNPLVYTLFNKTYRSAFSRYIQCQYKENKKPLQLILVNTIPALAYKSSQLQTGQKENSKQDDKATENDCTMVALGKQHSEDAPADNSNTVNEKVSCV

In order of falling Ki:
1. C1=C(c2ccccc2)CCN(Cc2cnn(-c3ccccc3)c2)C1  2100 nM
2. COc1ccccc1N1CCN(Cc2cnn(-c3ccccc3)c2)CC1  1300 nM

What follows are compounds tested against T3, D(2) dopamine receptor (assay: Intrinsic activity against dopamine D2(long) receptor assessed as [3H]thymidine uptake in CHO cells relative to quinpirole by mitogenesis assay). Conditions: not given.
Type: functional, cell-based

In order of falling Efficacy:
1. COc1ccccc1N1CCN(Cc2cnn(-c3ccccc3)c2)CC1  56%
2. C1=C(c2ccccc2)CCN(Cc2cnn(-c3ccccc3)c2)C1  54%

The compounds below were run against T3, D(2) dopamine receptor (assay: Intrinsic activity against dopamine D2(long) receptor assessed as [3H]thymidine uptake in CHO cells by mitogenesis assay). Conditions: not given.
Type: functional, cell-based

In order of rising EC50:
1. COc1ccccc1N1CCN(Cc2cnn(-c3ccccc3)c2)CC1  0.28 nM
2. C1=C(c2ccccc2)CCN(Cc2cnn(-c3ccccc3)c2)C1  3 nM

These compounds were tested against T3, D(2) dopamine receptor (assay: Displacement of [3H]spiperone from human cloned dopamine D2(long) receptor expressed in CHO cells). Conditions: not given.
Type: cell-based

In order of falling Ki:
1. c1ccc(-n2cc(CN3CCN(c4ncccn4)CC3)cn2)cc1  6000 nM
2. c1ccc(N2CCN(Cc3ccc(-n4cccn4)cc3)CC2)cc1  3000 nM
3. Clc1ccc(N2CCN(Cc3cnn(-c4ccccc4)c3)CC2)cc1  2900 nM
4. c1ccc(N2CCN(Cc3cn(-c4ccccc4)nn3)CC2)cc1  1500 nM
5. Cc1c(CN2CCN(c3ccccc3)CC2)cnn1-c1ccccc1  630 nM
6. Fc1ccc(N2CCN(Cc3cnn(-c4ccccc4)c3)CC2)cc1  450 nM
7. c1ccc(N2CCN(Cc3cnn(-c4ccccn4)c3)CC2)cc1  340 nM
8. C1=C(c2ccccc2)CCN(Cc2cn(-c3ccccc3)nn2)C1  220 nM
9. c1ccc(N2CCN(Cc3cnn(-c4ccccc4)c3)CC2)cc1  140 nM
10. COc1ccccc1N1CCN(Cc2cn(-c3ccccc3)nn2)CC1  120 nM
11. Cc1nn(-c2ccccc2)cc1CN1CCN(c2ccccc2)CC1  71 nM
12. Fc1ccccc1N1CCN(Cc2cnn(-c3ccccc3)c2)CC1  63 nM
13. COc1ccccc1N1CCN(Cc2cnn(-c3ccccn3)c2)CC1  40 nM
14. C1=C(c2ccccc2)CCN(Cc2cnn(-c3ccccc3)c2)C1  38 nM
15. COc1ccccc1N1CCN(Cc2cnn(-c3ccccc3)c2)CC1  11 nM

What follows are compounds tested against T3, D(2) dopamine receptor (assay: Displacement of [3H]spiperone from human cloned dopamine D2(short) receptor expressed in CHO cells). Conditions: not given.
Type: cell-based

Clc1ccc(N2CCN(Cc3cnn(-c4ccccc4)c3)CC2)cc1 showed a Ki of 1900 nM.

Same assay, conditions: read-out: Ki

In order of falling Ki:
1. c1ccc(-n2cc(CN3CCN(c4ncccn4)CC3)cn2)cc1  14000 nM
2. c1ccc(N2CCN(Cc3ccc(-n4cccn4)cc3)CC2)cc1  2400 nM
3. c1ccc(N2CCN(Cc3cn(-c4ccccc4)nn3)CC2)cc1  860 nM
4. Fc1ccc(N2CCN(Cc3cnn(-c4ccccc4)c3)CC2)cc1  400 nM
5. Cc1c(CN2CCN(c3ccccc3)CC2)cnn1-c1ccccc1  250 nM
6. c1ccc(N2CCN(Cc3cnn(-c4ccccn4)c3)CC2)cc1  190 nM
7. C1=C(c2ccccc2)CCN(Cc2cn(-c3ccccc3)nn2)C1  110 nM
8. c1ccc(N2CCN(Cc3cnn(-c4ccccc4)c3)CC2)cc1  75 nM
9. COc1ccccc1N1CCN(Cc2cn(-c3ccccc3)nn2)CC1  65 nM
10. Cc1nn(-c2ccccc2)cc1CN1CCN(c2ccccc2)CC1  43 nM
11. Fc1ccccc1N1CCN(Cc2cnn(-c3ccccc3)c2)CC1  37 nM
12. COc1ccccc1N1CCN(Cc2cnn(-c3ccccn3)c2)CC1  31 nM
13. C1=C(c2ccccc2)CCN(Cc2cnn(-c3ccccc3)c2)C1  28 nM
14. COc1ccccc1N1CCN(Cc2cnn(-c3ccccc3)c2)CC1  8 nM

These compounds were tested against T3, D(2) dopamine receptor (assay: Intrinsic activity against dopamine D2(long) receptor expressed in CHO cells by GTPgammaS assay). Conditions: not given.
Type: functional, cell-based

C1=C(c2ccccc2)CCN(Cc2cnn(-c3ccccc3)c2)C1 showed an EC50 of 25 nM.
